Molecular target: T1, human TRPV3 (Homo sapiens, UniProt Q8NET8)
T1 construct: host or cells: HEK293
T1 sequence (Q8NET8 1-790): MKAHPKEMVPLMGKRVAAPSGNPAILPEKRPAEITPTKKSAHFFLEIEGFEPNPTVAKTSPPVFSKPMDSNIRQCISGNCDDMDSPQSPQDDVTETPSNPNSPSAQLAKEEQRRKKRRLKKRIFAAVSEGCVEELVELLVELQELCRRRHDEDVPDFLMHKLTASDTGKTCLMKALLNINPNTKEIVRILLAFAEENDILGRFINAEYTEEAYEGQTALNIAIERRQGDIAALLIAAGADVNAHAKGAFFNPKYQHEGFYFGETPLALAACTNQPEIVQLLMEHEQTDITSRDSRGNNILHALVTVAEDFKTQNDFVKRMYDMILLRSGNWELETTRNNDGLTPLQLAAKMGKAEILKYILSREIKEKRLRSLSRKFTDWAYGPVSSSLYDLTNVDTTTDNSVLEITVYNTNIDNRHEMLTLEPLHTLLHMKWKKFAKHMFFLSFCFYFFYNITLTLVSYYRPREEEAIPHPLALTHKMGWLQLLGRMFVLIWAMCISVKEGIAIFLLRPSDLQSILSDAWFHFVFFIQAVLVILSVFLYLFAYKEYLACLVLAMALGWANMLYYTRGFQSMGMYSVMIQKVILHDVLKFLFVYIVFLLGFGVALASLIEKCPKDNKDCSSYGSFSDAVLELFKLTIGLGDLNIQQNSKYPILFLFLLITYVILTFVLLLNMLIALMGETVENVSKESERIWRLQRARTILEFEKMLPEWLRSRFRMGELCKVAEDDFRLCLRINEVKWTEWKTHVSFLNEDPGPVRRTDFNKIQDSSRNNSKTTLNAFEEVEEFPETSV
Assay: fluo-4 fluorometric Ca2+ assay, concentration-response, HEK cells expressing human TRPV3
Format: cell-based
Settings: HEK cells expressing human TRPV3, fluo-4, room temperature, mean ± SD back-transformed from log space, n=5; read-out: EC50 for human TRPV3 activation
Text: KU-19-19 (DSMZ no. ACC 395), CAL-29 (DSMZ no. ACC 515), 647-V (DSMZ no. ACC 414), RT-4 (DSMZ no. ACC 412), and RT-112 (DSMZ no. ACC 418) bladder cancer cell lines were obtained from the Leibniz Institute DSMZ (German Collection of Microorganisms and Cell Cultures). Human TRPV3 (NM_145068, purchased from OriGene) and mouse TRPV3 (NM_001371006), rat TRPV1, mouse TRPV2, mouse TRPV4, human TRPM2, human TRPM8, and human TRPA1 were stably transfected in HEK293 cells as described before.[27] […]
All fluorometric Ca^2+ assays were performed in HBS buffer at room temperature. […] For the primary compound screening and the generation of concentration-response analyses, a robotic liquid handling station (Freedom Evo 150; Tecan) with a built-in custom-made fluorescence plate imager was used. […] Fluorescence was excited using a 470-nm light-emitting diode, and emitted light was imaged through a 515-nm–long pass filter with a cooled Zyla 5.5 camera (Andor). Fluorescence was recorded and processed under the control of the μ-Manager 2.0 gamma software (https://micro-manager.org.[28]). After recording baseline fluorescence, compounds were dispensed into the wells via the liquid handling device. […] For further analysis, fluorescence signals were calculated for each well, corrected for background intensities and normalized to the initial signals. […]

EC50: 7.2 ± 1.4 µM
SMILES: COC(=O)C12CN(Cc3ccccc3)CC1(C(=O)OC)CN(Cc1ccccc1)C2 (stereo not shown) [AV3-1]

From article PMC12881674, “Activation of TRPV3 channels in bladder cancer cells stimulates ATP release” (Molecular Pharmacology, 2025)
